Test results as given in BindingDB's records for patent US10821115 (Amgen, 2020).
Values joined by “and” are separate entries in the source; they are usually repeats but may differ in a detail not shown here. Identical values can stand only once.

Target: T1, Induced myeloid leukemia cell differentiation protein Mcl-1 [171-327] (Homo sapiens, UniProt Q07820)
T1 construct: 171-327
Experiment: Time-Resolved Fluorescence Resonance Energy Transfer (TR-FRET) Assay

T1 sequence (Q07820 171-327): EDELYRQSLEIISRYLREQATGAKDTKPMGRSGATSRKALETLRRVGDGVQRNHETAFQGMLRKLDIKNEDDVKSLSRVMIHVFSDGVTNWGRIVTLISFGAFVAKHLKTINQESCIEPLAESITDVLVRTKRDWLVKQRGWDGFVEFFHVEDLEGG

SMILES | IC50
CO[C@@]1(CC(=O)N(C)C)/C=C/C[C@H](C)[C@@H](C)S(=O)(=O)NC(=O)c2ccc3c(c2)N(C[C@@H]2CC[C@H]21)C[C@@]1(CCCc2cc(Cl)ccc21)CO3 [US10821115, Example 100135] | 0.173 nM
CCO[C@]1(CN2CCN(C(COC)COC)CC2)/C=C/C[C@H](C)[C@@H](C)S(=O)(=O)NC(=O)c2ccc3c(c2)N(C[C@@H]2CC[C@H]21)C[C@@]1(CCCc2cc(Cl)ccc21)CO3 [US10821115, Example 116] | 0.244 nM
CO[C@@]1(CN2CCC(N3CCOCC3)CC2)/C=C/C[C@H](C)[C@@H](C)S(=O)(=O)NC(=O)c2ccc3c(c2)N(C[C@@H]2CC[C@H]21)C[C@@]1(CCCc2cc(Cl)ccc21)CO3 [US10821115, Example 263] | 0.147 nM
COC(=O)[C@H](NC(=O)C[C@]1(OC)/C=C/C[C@H](C)[C@@H](C)S(=O)(=O)NC(=O)c2ccc3c(c2)N(C[C@@H]2CC[C@H]21)C[C@@]1(CCCc2cc(Cl)ccc21)CO3)[C@@H](C)O [US10821115, Example 100581] | 0.363 nM
CO[C@@]1(CN2CCN([C@H]3CCOC(=O)C3)CC2)/C=C/C[C@H](C)[C@@H](C)S(=O)(=O)NC(=O)c2ccc3c(c2)N(C[C@@H]2CC[C@H]21)C[C@@]1(CCCc2cc(Cl)ccc21)CO3 [US10821115, Example 271] | 0.031 nM
COC(=O)CNC(=O)C[C@]1(OC)/C=C/C[C@H](C)[C@@H](C)S(=O)(=O)NC(=O)c2ccc3c(c2)N(C[C@@H]2CC[C@H]21)C[C@@]1(CCCc2cc(Cl)ccc21)CO3 [US10821115, Example 100550] | 0.059 nM
CO[C@]1(c2cccnc2F)/C=C/C[C@H](C)[C@@H](C)S(=O)(=O)NC(=O)c2ccc3c(c2)N(C[C@@H]2CC[C@H]21)C[C@@]1(CCCc2cc(Cl)ccc21)CO3 [US10821115, Example 100324] | 0.244 nM and 0.182 nM
COC(=O)C(C)(C)NC(=O)C[C@]1(OC)/C=C/C[C@H](C)[C@@H](C)S(=O)(=O)NC(=O)c2ccc3c(c2)N(C[C@@H]2CC[C@H]21)C[C@@]1(CCCc2cc(Cl)ccc21)CO3 [US10821115, Example 100544] | 0.171 nM
CO[C@@]1(CC(=O)NC(C)(C)C(=O)O)/C=C/C[C@H](C)[C@@H](C)S(=O)(=O)NC(=O)c2ccc3c(c2)N(C[C@@H]2CC[C@H]21)C[C@@]1(CCCc2cc(Cl)ccc21)CO3 [US10821115, Example 100546] | 0.084 nM
COCCN(CCOC)C1CCN(C[C@]2(OC)/C=C/C[C@H](C)[C@@H](C)S(=O)(=O)NC(=O)c3ccc4c(c3)N(C[C@@H]3CC[C@H]32)C[C@@]2(CCCc3cc(Cl)ccc32)CO4)CC1 [US10821115, Example 308] | 0.111 nM
CO[C@@]1(CN2CCN([C@H](CCO)CC(=O)O)CC2)/C=C/C[C@H](C)[C@@H](C)S(=O)(=O)NC(=O)c2ccc3c(c2)N(C[C@@H]2CC[C@H]21)C[C@@]1(CCCc2cc(Cl)ccc21)CO3 [US10821115, Example 278] | 0.039 nM
CO[C@@]1(c2cccnn2)/C=C/C[C@H](C)[C@@H](C)S(=O)(=O)N(C)C(=O)c2ccc3c(c2)N(C[C@@H]2CC[C@H]21)C[C@@]1(CCCc2cc(Cl)ccc21)CO3 [US10821115, Example 100350] | 0.489 nM
CO[C@]1(CN2CCN(C3(C)COC3)CC2)/C=C/C[C@H](C)[C@@H](C)S(=O)(=O)NC(=O)c2ccc3c(c2)N(C[C@@H]2CC[C@H]21)C[C@@]1(CCCc2cc(Cl)ccc21)CO3 [US10821115, Example 319] | 0.081 nM
CO[C@@]1(CN2CCN(C3CCOCC3)CC2)/C=C/C[C@H](C)[C@@H](C)S(=O)(=O)NC(=O)c2ccc3c(c2)N(C[C@@H]2CC[C@H]21)C[C@@]1(CCCc2cc(Cl)ccc21)CO3 [US10821115, Example 262] | 0.093 nM
CO[C@]1(c2cccc(F)n2)/C=C/C[C@H](C)[C@@H](C)S(=O)(=O)NC(=O)c2ccc3c(c2)N(C[C@@H]2CC[C@H]21)C[C@@]1(CCCc2cc(Cl)ccc21)CO3 [US10821115, Example 100339] | 0.779 nM
CO[C@]1(CN2CCN(CC(F)(F)F)CC2)/C=C/C[C@H](C)[C@@H](C)S(=O)(=O)NC(=O)c2ccc3c(c2)N(C[C@@H]2CC[C@H]21)C[C@@]1(CCCc2cc(Cl)ccc21)CO3 [US10821115, Example 93] | 0.53 nM
C[C@@H]1[C@@H](C)C/C=C/[C@@](O)(c2ccc(F)nc2)[C@@H]2CC[C@H]2CN2C[C@@]3(CCCc4cc(Cl)ccc43)COc3ccc(cc32)C(=O)NS1(=O)=O (single isomer, unassigned) [US10821115, Example 100420] | 0.112 nM
CO[C@@]1(CC(N)=O)/C=C/C[C@H](C)[C@@H](C)S(=O)(=O)NC(=O)c2ccc3c(c2)N(C[C@@H]2CC[C@H]21)C[C@@]1(CCCc2cc(Cl)ccc21)CO3 [US10821115, Example 100589] | 1.83 nM
CO[C@@]1(CC(=O)N(C)C2CC2)/C=C/C[C@H](C)[C@@H](C)S(=O)(=O)NC(=O)c2ccc3c(c2)N(C[C@@H]2CC[C@H]21)C[C@@]1(CCCc2cc(Cl)ccc21)CO3 [US10821115, Example 100374] | 0.289 nM
CO[C@@]1(CN2CCN(CC(CO)CO)CC2)/C=C/C[C@H](C)[C@@H](C)S(=O)(=O)NC(=O)c2ccc3c(c2)N(C[C@@H]2CC[C@H]21)C[C@@]1(CCCc2cc(Cl)ccc21)CO3 [US10821115, Example 310] | 0.117 nM
CO[C@@]1(CC(=O)NCCO)/C=C/C[C@H](C)[C@@H](C)S(=O)(=O)NC(=O)c2ccc3c(c2)N(C[C@@H]2CC[C@H]21)C[C@@]1(CCCc2cc(Cl)ccc21)CO3 [US10821115, Example 100465] | 0.121 nM
COCC(COC)N1CCN(C[C@]2(OC)/C=C/C[C@H](C)[C@@H](C)S(=O)(=O)NC(=O)c3ccc4c(c3)N(C[C@@H]3CC[C@H]32)C[C@@]2(CCCc3cc(Cl)ccc32)CO4)CC1 [US10821115, Example 287] | 0.137 nM
CCO[C@@]1(CN2CCC(N(CCOC)CCOC)CC2)/C=C/C[C@H](C)[C@@H](C)S(=O)(=O)NC(=O)c2ccc3c(c2)N(C[C@@H]2CC[C@H]21)C[C@@]1(CCCc2cc(Cl)ccc21)CO3 [US10821115, Example 312] | 0.576 nM
CCN(CC)C(=O)C[C@]1(OC)/C=C/C[C@H](C)[C@@H](C)S(=O)(=O)NC(=O)c2ccc3c(c2)N(C[C@@H]2CC[C@H]21)C[C@@]1(CCCc2cc(Cl)ccc21)CO3 [US10821115, Example 100347] | 0.689 nM
C[C@@H]1[C@@H](C)C/C=C/[C@](O)(C#CCCc2ccccn2)[C@@H]2CC[C@H]2CN2C[C@@]3(CCCc4cc(Cl)ccc43)COc3ccc(cc32)C(=O)NS1(=O)=O [US10821115, Example 100455] | 0.087 nM
CCO[C@@]1(CN2CCN(C3(C)COC3)CC2)/C=C/C[C@H](C)[C@@H](C)S(=O)(=O)NC(=O)c2ccc3c(c2)N(C[C@@H]2CC[C@H]21)C[C@@]1(CCCc2cc(Cl)ccc21)CO3 [US10821115, Example 311] | 0.324 nM
CO[C@@]1(CN2CCN(CCS(C)(=O)=O)CC2)/C=C/C[C@H](C)[C@@H](C)S(=O)(=O)NC(=O)c2ccc3c(c2)N(C[C@@H]2CC[C@H]21)C[C@@]1(CCCc2cc(Cl)ccc21)CO3 [US10821115, Example 81] | 0.14 nM
CO[C@@]1(CC(=O)NCc2ncco2)/C=C/C[C@H](C)[C@@H](C)S(=O)(=O)NC(=O)c2ccc3c(c2)N(C[C@@H]2CC[C@H]21)C[C@@]1(CCCc2cc(Cl)ccc21)CO3 [US10821115, Example 100577] | 0.045 nM
